Values quoted from earlier work, collected in US20140303227A1, “TRANSMUCOSAL HORMONE DELIVERY SYSTEM” (Pharmaceutical Productions Inc., priority 2013, published 2014).

Conditions: pH 6.8

**Q.** With `CN1CCCC1c1cccnc1` (stereo not shown) [nicotine] as the molecule, how does the “nicotine in the free base form” value read?
**A.** Its value is “about 10%”.
